Reference: US20240366594A1, “Small Molecule Inhibitors of Formation of Neutrophil-Derived Extracellular Traps (NETosis) and Uses Thereof” (The Brigham and Women's Hospital, Inc., priority 2021, published 2024)

Experiments:
Format in all cases: cell-based
human neutrophils [1] = assay: Citrullinated histone H3 (CitH3) NET induction in PMA-stimulated human neutrophils; settings: for NET induction, measured as CitH3 staining: drugs 10, 2, 0.4, 0.08 μM or GSK484 10 μM for 1 h, then 1 μM PMA 3 h, FIGS. 1A and 5D
Protocol: FIGS. 1A-H. Class I/II HDACs drive NET formation • (A and B) Freshly purified human (A) or mouse (B) neutrophils were treated with the indicated HDAC inhibitors at different doses (10, 2, 0.4, 0.08 μM), or with GSK484 (10 μM), for 1 h and then stimulated with 1 μM PMA for 3 h. Cells were fixed and stained with anti-citrullinated histone H3 (CitH3) antibody. NETosis induction was measured as the level of anti-CitH3 fluorescent signal. PMA alone represents 100% of NET induction. “-”: Cells treated with the highest dose of the indicated drug but not activated with PMA. • (C and D) Human neutrophils were treated, or not, with ricolinostat or GSK484 and then stimulated with 1 μM PMA. NETosis induction was measured as area of nuclei stained with DAPI. (C) 3D reconstruction of nuclei in each treatment (grid size 7.8 μm). (D) Quantification of DAPI signal from multiple fields of view (D) (n=9 for unstimulated, not pretreated with any drug [NT] and ricolinostat, n=7 for GSK484). • (E and F) Human neutrophils were treated as in (C-D), and immunoblot analysis of the indicated proteins was performed. Relative quantification of band intensity was analyzed with ImageJ software (F). White violins plots depict the quantification of histone H3 acetylation; red violin plots depict the quantification of histone H3 citrullination. Immunoblot in E is representative of four independent experiments. Gasdermin D NT, gasdermin D N terminal; pMLKL, phospho-MLKL. • (G) Human (left) or murine (right) neutrophils were treated, or not, with ricolinostat (10 μM) and then stimulated with 1 μM PMA for 3 h. ROS production was measured by luminescence with luminol-HRP. Histograms represent the total amount of ROS produced overtime. • (H) Murine neutrophils were treated, or not, with ricolinostat (10 μM) and then stimulated with fluorescent E. coli at the indicated multiplicity of infection (MOI) for 1 h. The histogram represents the percentage of neutrophils positive for E. coli staining. Graphs show mean±SEM. Statistics were calculated using one-way ANOVA (A, B, D) and two-way ANOVA (F, G, H) (*p<0.05; **p<0.01; ****p<0.0001. n.s., not significant). Statistics refers to the comparison with neutrophils stimulated with PMA alone (A, B). Gray stars represent comparison of all experimental groups with the unstimulated control, and black stars represent comparison between drug-treated groups and cells treated with PMA only (NT) (D). See also FIGS. 5A-J.
FIGS. 5A-J. Class I/II HDACs drive NET formation. • A) Quantification of extracellular DNA released by neutrophils treated, or not, with 1 μM GSK484 for 1 h and then stimulated with 1 μM PMA for 4 hours. Unstimulated, neutrophils not treated with drugs were used as a control. • B) Freshly purified human neutrophils were treated with the indicated HDAC inhibitors at different doses (0.08, 0.4, 2 and 10 μM) for 1 hour. Extracellular DNA release was assessed in the supernatant 3 hours after PMA stimulation. The dotted line represents the amount of DNA released from neutrophils treated with PMA alone. “-”: cells treated with the highest dose of the indicated drug but not activated with PMA. • C) Freshly purified human neutrophils were stimulated for 1 h, 3 h or 5 h. Cells were fixed and stained with an anti-CitH3 antibody. NETosis induction was measured as level of anti-CitH3 fluorescent signal. 5h-PMA treatment represents 100% NET induction. • D) Representative images of freshly isolated human neutrophils treated or not with 10 μM of the indicated drugs and stimulated with 1 μM PMA for 3 hours. Cells were fixed and then stained for CitH3 (red) and nuclei (blue). Scale bar=100 μm. • E) Murine neutrophils were treated with ricolinostat or GSK484 and then stimulated with […] for 3 hours. NET induction was measured as in (C). […]

human neutrophils [2] = assay: Immunoblot of PMA-treated human neutrophils (cell death markers, histone H3 acetylation and citrullination); settings: for PMA-induced gasdermin D (GSDMD) cleavage: 1 μM PMA; for PMA-induced gasdermin D (GSDMD) cleavage / activation of apoptosis or necroptosis: immunoblot FIG. 1E; for activation of apoptosis or necroptosis: PMA-treated cells exposed to drug; for H3 citrullination: compared with cells treated with PMA only
human neutrophils [3] = assay: Expansion of nuclei (area of DAPI-stained nuclei) in PMA-treated human neutrophils; settings: 1 μM PMA; FIGS. 1C and 1D
Protocol: FIGS. 1A-H. Class I/II HDACs drive NET formation • (A and B) Freshly purified human (A) or mouse (B) neutrophils were treated with the indicated HDAC inhibitors at different doses (10, 2, 0.4, 0.08 μM), or with GSK484 (10 μM), for 1 h and then stimulated with 1 μM PMA for 3 h. Cells were fixed and stained with anti-citrullinated histone H3 (CitH3) antibody. NETosis induction was measured as the level of anti-CitH3 fluorescent signal. PMA alone represents 100% of NET induction. “-”: Cells treated with the highest dose of the indicated drug but not activated with PMA. • (C and D) Human neutrophils were treated, or not, with ricolinostat or GSK484 and then stimulated with 1 μM PMA. NETosis induction was measured as area of nuclei stained with DAPI. (C) 3D reconstruction of nuclei in each treatment (grid size 7.8 μm). (D) Quantification of DAPI signal from multiple fields of view (D) (n=9 for unstimulated, not pretreated with any drug [NT] and ricolinostat, n=7 for GSK484). • (E and F) Human neutrophils were treated as in (C-D), and immunoblot analysis of the indicated proteins was performed. Relative quantification of band intensity was analyzed with ImageJ software (F). White violins plots depict the quantification of histone H3 acetylation; red violin plots depict the quantification of histone H3 citrullination. […] ROS production was measured by luminescence with luminol-HRP. […]

mouse neutrophils = assay: Citrullinated histone H3 (CitH3) NET induction in PMA-stimulated mouse neutrophils
Protocol: FIGS. 1A-H. Class I/II HDACs drive NET formation • (A and B) Freshly purified human (A) or mouse (B) neutrophils were treated with the indicated HDAC inhibitors at different doses (10, 2, 0.4, 0.08 μM), or with GSK484 (10 μM), for 1 h and then stimulated with 1 μM PMA for 3 h. Cells were fixed and stained with anti-citrullinated histone H3 (CitH3) antibody. NETosis induction was measured as the level of anti-CitH3 fluorescent signal. PMA alone represents 100% of NET induction. “-”: Cells treated with the highest dose of the indicated drug but not activated with PMA. • (C and D) Human neutrophils were treated, or not, with ricolinostat or GSK484 and then stimulated with 1 μM PMA. NETosis induction was measured as area of nuclei stained with DAPI. (C) 3D reconstruction of nuclei in each treatment (grid size 7.8 μm). (D) Quantification of DAPI signal from multiple fields of view (D) (n=9 for unstimulated, not pretreated with any drug [NT] and ricolinostat, n=7 for GSK484). • (E and F) Human neutrophils were treated as in (C-D), and immunoblot analysis of the indicated proteins was performed. Relative quantification of band intensity was analyzed with ImageJ software (F). White violins plots depict the quantification of histone H3 acetylation; red violin plots depict the quantification of histone H3 citrullination. Immunoblot in E is representative of four independent experiments. Gasdermin D NT, gasdermin D N terminal; pMLKL, phospho-MLKL. • (G) Human (left) or murine (right) neutrophils were treated, or not, with ricolinostat (10 μM) and then stimulated with 1 μM PMA for 3 h. ROS production was measured by luminescence with luminol-HRP. Histograms represent the total amount of ROS produced overtime. • (H) Murine neutrophils were treated, or not, with ricolinostat (10 μM) and then stimulated with fluorescent E. coli at the indicated multiplicity of infection (MOI) for 1 h. The histogram represents the percentage of neutrophils positive for E. coli staining. Graphs show mean±SEM. Statistics were calculated using one-way ANOVA (A, B, D) and two-way ANOVA (F, G, H) (*p<0.05; **p<0.01; ****p<0.0001. n.s., not significant). Statistics refers to the comparison with neutrophils stimulated with PMA alone (A, B). […]
FIGS. 5A-J. Class I/II HDACs drive NET formation. • A) Quantification of extracellular DNA released by neutrophils treated, or not, with 1 μM GSK484 for 1 h and then stimulated with 1 μM PMA for 4 hours. […] Extracellular DNA release was assessed in the supernatant 3 hours after PMA stimulation. […] NETosis induction was measured as level of anti-CitH3 fluorescent signal. […] NET induction was measured as in (C). […]

SMILES	NET induction, measured as CitH3 staining (human neutrophils [1])	PMA-induced gasdermin D (GSDMD) cleavage (human neutrophils [2])	activation of apoptosis or necroptosis (human neutrophils [2])	H3 citrullination (human neutrophils [2]; FIGS. 1E and 1F)	NET formation (level of CitH3), two independent donors (human neutrophils [1]; 10, 2, 0.4, 0.08 μM for 1 h, then 1 μM PMA, FIGS. 5H, 5I)	NETosis (anti-CitH3 signal), comparison of class I/IIb and class IIb selective inhibitors (human neutrophils [1]; drugs 10, 2, 0.4, 0.08 μM 1 hour, then 1 μM PMA 3 hours, FIG. 5F)	expansion of nuclei (area of nuclei stained with DAPI) (human neutrophils [3])	release of CitH3 (NET induction) (mouse neutrophils; drugs 10, 2, 0.4, 0.08 μM for 1 h, then 1 μM PMA 3 h, FIG. 1B)	NET formation (level of CitH3) (mouse neutrophils; murine neutrophils, PMA, FIG. 5J)	histone H3 acetylation (human neutrophils [2]; untreated as well as PMA-treated cells, FIGS. 1E and 1F)
COc1cc(C(=O)N2CC[C@@H](O)[C@@H](N)C2)cc2nc(-c3cc4ccccc4n3CC3CC3)n(C)c12 [GSK484]	dramatically reduced NET induction	not altered	excluded the activation of apoptosis or necroptosis	completely abrogated						
O=C(CCCCCCNC(=O)c1cnc(N(c2ccccc2)c2ccccc2)nc1)NO [ricolinostat]	prevented NET release in a dose-dependent manner with an efficacy comparable with GSK484	not altered	excluded the activation of apoptosis or necroptosis	significantly decreased	inhibited NET formation to a comparable extent	class I/IIb HDAC inhibition prevented NETosis	significantly reduced	efficiently decreased	inhibited NET formation to a comparable extent	boosted
